Measurements published in patent US20110053773A1, “METHODS OF IMPROVING NUTRITIONAL VALUE OF PLANTS” (UNIVERSITY OF TENNESSEE RESEARCH FOUNDATION, priority 2009, published 2011).

What was measured:
Format in all cases: in vivo
[1] = system: sweet corn variety WH0809; test: Sweet corn yield, harvested and weighed in the husk (Example 2); conditions: treated check 9758.4
Method: (§1) A field study was conducted at Greenback, TN to investigate POST applications of several herbicide inhibitors of photosynthesis for sweet corn safety and for changes in carbohydrate content in the kernels of sweet corn among treatments. Treatments included bentazon at 1120 and 2240 g ai/ha, linuron at 280 and 560 g ai/ha, metribuzin at 105 and 210 g ai/ha, and bromoxynil at 560 and 1120 g ai/ha. All treatments included a PRE application of a common residual corn herbicide in order to maintain weed free conditions. […] Sweet corn was harvested from the center two rows of each four row plot and weighed in the husk. Eight ears of corn were harvested from each plot and were pooled over replicates for analysis of key carbohydrates which included the sugars sucrose, fructose, glucose, maltose, and raffanose.

[2] = system: sweet corn variety WH0809; test: Visual injury of sweet corn after POST herbicide inhibitors of photosynthesis (Example 2)
Method: as §1

[3] = system: sweet corn variety WH0809; test: Sugar content of sweet corn kernels (Example 2); conditions: for Sugar content Raffanose: treated check 0.51; for Sugar content Maltose: treated check 0.61; for Sugar content Fructose: treated check 1.04; for Sugar content Glucose: treated check 1.91; for Sugar content Sucrose: treated check 10.72
Method: as §1

[4] = 1120 g ai/ha + COC 1% v/v POST, 1st of 3 Injury columns, rating date not given
[5] = 1120 g ai/ha + COC 1% v/v POST, 2nd of 3 Injury columns (agrees with 14 DAT of b67)
[6] = 1120 g ai/ha + COC 1% v/v POST, 3rd of 3 Injury columns, rating date not given
[7] = 560 g ai/ha + COC 1% v/v POST, 1st of 3 Injury columns, rating date not given
[8] = 560 g ai/ha + COC 1% v/v POST, 2nd of 3 Injury columns (agrees with 14 DAT of b67)
[9] = 560 g ai/ha + COC 1% v/v POST, 3rd of 3 Injury columns, rating date not given

Structure (SMILES): CC(C)N1C(=O)c2ccccc2NS1(=O)=O [BENTAZON, bentazon]
- YIELD ([1]; 1120 g ai/ha + COC 1% v/v POST): 10317 kg
- YIELD ([1]; 2240 g ai/ha + COC 1% v/v POST): 10565.6 kg
- Injury [2, 4]: 5%
- Injury [2, 5]: 17%
- Injury [2, 6]: 0%
- Injury ([2]; 2240 g ai/ha + COC 1% v/v POST, 1st of 3 Injury columns, rating date not given): 12%
- Injury ([2]; 2240 g ai/ha + COC 1% v/v POST, 2nd of 3 Injury columns (agrees with 14 DAT of b67)): 10%
- Injury ([2]; 2240 g ai/ha + COC 1% v/v POST, 3rd of 3 Injury columns, rating date not given): 2%
- Sugar content Raffanose ([3]; 1120 g ai/ha + COC 1% v/v POST): 0.56 mg/g dw
- Sugar content Maltose ([3]; 1120 g ai/ha + COC 1% v/v POST): 0.96 mg/g dw
- Sugar content Fructose ([3]; 1120 g ai/ha + COC 1% v/v POST): 1.69 mg/g dw
- Sugar content Glucose ([3]; 1120 g ai/ha + COC 1% v/v POST): 2.65 mg/g dw
- Sugar content Sucrose ([3]; 1120 g ai/ha + COC 1% v/v POST): 13.18 mg/g dw
- Sugar content Raffanose ([3]; 2240 g ai/ha + COC 1% v/v POST): 0.84 mg/g dw
- Sugar content Maltose ([3]; 2240 g ai/ha + COC 1% v/v POST): 1.26 mg/g dw
- Sugar content Fructose ([3]; 2240 g ai/ha + COC 1% v/v POST): 1.78 mg/g dw
- Sugar content Glucose ([3]; 2240 g ai/ha + COC 1% v/v POST): 3.41 mg/g dw
- Sugar content Sucrose ([3]; 2240 g ai/ha + COC 1% v/v POST): 18.67 mg/g dw

Structure (SMILES): N#Cc1cc(Br)c(O)c(Br)c1 [BROMOXYNIL, bromoxynil]
- YIELD ([1]; 560 g ai/ha + COC 1% v/v POST): 9436.2 kg
- YIELD ([1]; 1120 g ai/ha + COC 1% v/v POST): 9142.6 kg
- Injury [2, 7]: 37%
- Injury [2, 8]: 35%
- Injury [2, 9]: 27%
- Injury [2, 4]: 45%
- Injury [2, 5]: 47%
- Injury [2, 6]: 35%
- Sugar content Raffanose ([3]; 560 g ai/ha + COC 1% v/v POST): 0.77 mg/g dw
- Sugar content Maltose ([3]; 560 g ai/ha + COC 1% v/v POST): 0.88 mg/g dw
- Sugar content Fructose ([3]; 560 g ai/ha + COC 1% v/v POST): 1.74 mg/g dw
- Sugar content Glucose ([3]; 560 g ai/ha + COC 1% v/v POST): 3.07 mg/g dw
- Sugar content Sucrose ([3]; 560 g ai/ha + COC 1% v/v POST): 15.56 mg/g dw
- Sugar content Raffanose ([3]; 1120 g ai/ha + COC 1% v/v POST): 0.54 mg/g dw
- Sugar content Maltose ([3]; 1120 g ai/ha + COC 1% v/v POST): 0.60 mg/g dw
- Sugar content Fructose ([3]; 1120 g ai/ha + COC 1% v/v POST): 1.77 mg/g dw
- Sugar content Glucose ([3]; 1120 g ai/ha + COC 1% v/v POST): 2.70 mg/g dw
- Sugar content Sucrose ([3]; 1120 g ai/ha + COC 1% v/v POST): 14.50 mg/g dw

Structure (SMILES): CON(C)C(=O)Nc1ccc(Cl)c(Cl)c1 [LINURON, linuron]
- YIELD ([1]; 280 g ai/ha + COC 1% v/v POST): 8062.6 kg
- YIELD ([1]; 560 g ai/ha + COC 1% v/v POST): 9227.9 kg
- Injury ([2]; 280 g ai/ha + COC 1% v/v POST, 1st of 3 Injury columns, rating date not given): 25%
- Injury ([2]; 280 g ai/ha + COC 1% v/v POST, 2nd of 3 Injury columns (agrees with 14 DAT of b67)): 22%
- Injury ([2]; 280 g ai/ha + COC 1% v/v POST, 3rd of 3 Injury columns, rating date not given): 25%
- Injury [2, 7]: 38%
- Injury [2, 8]: 35%
- Injury [2, 9]: 27%
- Sugar content Raffanose ([3]; 280 g ai/ha + COC 1% v/v POST): 0.64 mg/g dw
- Sugar content Maltose ([3]; 280 g ai/ha + COC 1% v/v POST): 0.95 mg/g dw
- Sugar content Fructose ([3]; 280 g ai/ha + COC 1% v/v POST): 1.86 mg/g dw
- Sugar content Glucose ([3]; 280 g ai/ha + COC 1% v/v POST): 3.22 mg/g dw
- Sugar content Sucrose ([3]; 280 g ai/ha + COC 1% v/v POST): 12.02 mg/g dw
- Sugar content Raffanose ([3]; 560 g ai/ha + COC 1% v/v POST): 0.48 mg/g dw
- Sugar content Maltose ([3]; 560 g ai/ha + COC 1% v/v POST): 0.59 mg/g dw
- Sugar content Fructose ([3]; 560 g ai/ha + COC 1% v/v POST): 1.39 mg/g dw
- Sugar content Glucose ([3]; 560 g ai/ha + COC 1% v/v POST): 2.33 mg/g dw
- Sugar content Sucrose ([3]; 560 g ai/ha + COC 1% v/v POST): 13.30 mg/g dw

Structure (SMILES): CSc1nnc(C(C)(C)C)c(=O)n1N [METRIBUZIN, metribuzin]
- YIELD ([1]; 105 g ai/ha + COC 1% v/v POST): 10715.4 kg
- YIELD ([1]; 210 g ai/ha + COC 1% v/v POST): 8967.5 kg
- Injury ([2]; 105 g ai/ha + COC 1% v/v POST, 1st of 3 Injury columns, rating date not given): 12%
- Injury ([2]; 105 g ai/ha + COC 1% v/v POST, 2nd of 3 Injury columns (agrees with 14 DAT of b67)): 13%
- Injury ([2]; 105 g ai/ha + COC 1% v/v POST, 3rd of 3 Injury columns, rating date not given): 5%
- Injury ([2]; 210 g ai/ha + COC 1% v/v POST, 1st of 3 Injury columns, rating date not given): 17%
- Injury ([2]; 210 g ai/ha + COC 1% v/v POST, 2nd of 3 Injury columns (agrees with 14 DAT of b67)): 30%
- Injury ([2]; 210 g ai/ha + COC 1% v/v POST, 3rd of 3 Injury columns, rating date not given): 22%
- Sugar content Raffanose ([3]; 105 g ai/ha + COC 1% v/v POST): 0.36 mg/g dw
- Sugar content Maltose ([3]; 105 g ai/ha + COC 1% v/v POST): 0.49 mg/g dw
- Sugar content Fructose ([3]; 105 g ai/ha + COC 1% v/v POST): 1.04 mg/g dw
- Sugar content Glucose ([3]; 105 g ai/ha + COC 1% v/v POST): 1.79 mg/g dw
- Sugar content Sucrose ([3]; 105 g ai/ha + COC 1% v/v POST): 9.35 mg/g dw
- fructose increase compared to the untreated check ([3]; 210 g ai/ha): 115%
- glucose increase compared to the untreated check ([3]; 210 g ai/ha): 106%
- maltose increase compared to the untreated check ([3]; 210 g ai/ha): 74%
- raffanose increase compared to the untreated check ([3]; 210 g ai/ha): 59%
- sucrose increase compared to the untreated check ([3]; 210 g ai/ha): 103%
- Sugar content Raffanose ([3]; 210 g ai/ha + COC 1% v/v POST): 0.81 mg/g dw
- Sugar content Maltose ([3]; 210 g ai/ha + COC 1% v/v POST): 1.06 mg/g dw
- Sugar content Fructose ([3]; 210 g ai/ha + COC 1% v/v POST): 2.24 mg/g dw
- Sugar content Glucose ([3]; 210 g ai/ha + COC 1% v/v POST): 3.93 mg/g dw
- Sugar content Sucrose ([3]; 210 g ai/ha + COC 1% v/v POST): 21.79 mg/g dw
